Data taken from patent publication US9156811B2 (priority 2008, dated 2015).
Read-outs that look alike come from different tables or passages of the source.

Key:
[1] = tested on: Trypanosome (T. brucei brucei); test: In-vitro antitrypanosomal efficacy assay (cell growth, resazurin); format: cell-based
Description: To column 12, 200 μl media was added to provide a no cells control. Plates were then incubated at 37° C. in an atmosphere of 5% CO2 for 69 hours, before the addition of 20 μl of 500 μM rezasurin solution, and a further incubation period of 4 hours. […] Concentration effect curves were fitted using non-linear regression using XLFit 4.2 and EC50 values determined.

[2] = biological target: T. brucei N-myristoyl transferase (Trypanosoma brucei brucei (strain 927/4 GUTat10.1), UniProt Q388H8); test: biochemical; format: biochemical
[3] = value with no enzyme tag in the cell, taken as T. brucei NMT, read-out: IC50 (μM) NMT Enzyme
[4] = value printed without enzyme tag in the NMT Enzyme column (taken as T. brucei NMT), read-out: IC50 (μM) NMT Enzyme
[5] = T. brucei brucei, blood stream form, variant 221
[6] = T. brucei NMT, value without parentheses, read-out: IC50 (μM) NMT Enzyme (T. brucei NMT)

T. brucei N-myristoyl transferase, sequence (Q388H8 1-446): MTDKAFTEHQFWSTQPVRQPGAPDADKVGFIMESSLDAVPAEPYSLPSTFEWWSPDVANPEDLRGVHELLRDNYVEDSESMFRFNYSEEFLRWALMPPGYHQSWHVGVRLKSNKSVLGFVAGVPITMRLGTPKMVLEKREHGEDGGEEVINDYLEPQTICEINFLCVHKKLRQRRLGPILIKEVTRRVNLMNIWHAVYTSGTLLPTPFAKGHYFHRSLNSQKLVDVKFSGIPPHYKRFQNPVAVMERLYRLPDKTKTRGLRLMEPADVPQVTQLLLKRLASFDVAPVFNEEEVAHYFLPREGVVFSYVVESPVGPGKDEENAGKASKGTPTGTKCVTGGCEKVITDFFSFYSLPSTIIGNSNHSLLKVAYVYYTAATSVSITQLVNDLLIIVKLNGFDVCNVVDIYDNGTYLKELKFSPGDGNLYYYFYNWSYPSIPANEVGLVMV

Cc1nn(C)c(C)c1N[S+](=O)([O-])c1ccc(NCCCN2CCN(c3ccccc3)CC2)nc1 [DDD86291]
ED50 (μM) T. brucei ([1]; T. brucei cell growth): >1 µM
IC50 [2, 3]: 1 µM

Cc1nn(C)c(C)c1N[S+](=O)([O-])c1c(Cl)cc(-c2cccc(OCC(C)C)c2)cc1Cl [DDD73272]
ED50 (μM) T. brucei ([1]; T. brucei cell growth): >1 µM
IC50 [2, 4]: 35 µM

COc1cc(C)c([S+](=O)([O-])Nc2ccncn2)c(C)c1C [DDD71295]
ED50 (μM) T. brucei ([1]; T. brucei cell growth): >1 µM
IC50 [2, 4]: 30 µM

Cc1nn(C)c(C)c1N[S+](=O)([O-])c1ccc(NCCO)nc1 [DDD86293]
ED50 (μM) T. brucei ([1]; T. brucei cell growth): >1 µM
IC50 [2, 3]: 1 µM

Cc1nn(C)c(C)c1N[S+](=O)([O-])c1ccc(NCc2cccc(CN3CCCCC3)c2)nc1 [DDD85651]
ED50 (μM) T. brucei ([1]; T. brucei cell growth): 9.8 µM
IC50 [2, 3]: 1.8 µM

Cc1nn(C)c(C)c1N[S+](=O)([O-])c1ccccc1 [DDD48025]
ED50 (μM) T. brucei ([1]; T. brucei cell growth): >1 µM
IC50 [2, 4]: 11.8 µM

COc1ccc([S+](=O)([O-])Nc2c(C)nn(C)c2C)cc1NC(C)=O [DDD71622]
ED50 (μM) T. brucei ([1]; T. brucei cell growth): >1 µM
IC50 [2, 4]: 41 µM

Cc1nn(C)c(C)c1N[S+](=O)([O-])c1ccc2c(c1)C(C)C(=O)N2 (stereo not drawn) [DDD71637]
ED50 (μM) T. brucei ([1]; T. brucei cell growth): >1 µM
IC50 [2, 4]: 11.7 µM

Cc1nn(C)c(C)c1N[S+](=O)([O-])c1ccc(CNc2ccc(N3CCOCC3)cc2)cc1 [DDD73506]
ED50 (μM) T. brucei ([1]; T. brucei cell growth): >1 µM
IC50 [2, 4]: 10 µM

Cc1c(N[S+](=O)([O-])c2ccc(-c3cccc(CN(C)C)c3)c(C(F)(F)F)c2)c(CC(C)C)nn1C [DDD99822]
ED50 (μM) T. brucei ([1]; T. brucei cell growth): 0.051 µM
IC50 [2, 3]: 0.006 µM

Cc1nn(C)c(C)c1N[S+](=O)([O-])c1ccc(NCCCNC2CCN(Cc3ccccc3)C2)nc1 (stereo not drawn) [DDD86295]
ED50 (μM) T. brucei ([1]; T. brucei cell growth): >1 µM
IC50 [2, 3]: 1 µM

Cc1nn(C)c(C)c1N[S+](=O)([O-])c1ccc(NCCN2CCN(C)CC2c2ccccc2)nc1 (stereo not drawn) [DDD86304]
ED50 (μM) T. brucei ([1]; T. brucei cell growth): >1 µM
IC50 [2, 3]: 1 µM

Cc1nn(C)c(C)c1N[S+](=O)([O-])c1ccc(Nc2ccccc2)nc1 [DDD73480]
ED50 (μM) T. brucei ([1]; T. brucei cell growth): 22.1 µM
IC50 [2, 4]: 4.5 µM

Cc1nn(C)c(C)c1N[S+](=O)([O-])c1c(Cl)cc(C#Cc2cncn2C)cc1Cl [DDD73484]
ED50 (μM) T. brucei ([1]; T. brucei cell growth): 3.1 µM
IC50 [2, 4]: 0.67 µM

Cc1nn(C)c(C)c1N[S+](=O)([O-])c1c(Cl)cc(-c2cccc(C(F)(F)F)c2)cc1Cl [DDD73277]
ED50 (μM) T. brucei ([1]; T. brucei cell growth): >1 µM
IC50 [2, 4]: 40 µM

Cc1nn(C)c(C)c1N[S+](=O)([O-])c1ccc(N2Cc3ccccc3CC2CO)nc1 (stereo not drawn) [DDD73331]
ED50 (μM) T. brucei ([1]; T. brucei cell growth): >1 µM
IC50 [2, 4]: 6 µM

Cc1nn(C)c(C)c1N[S+](=O)([O-])c1ccc(NCCc2ccc(-c3ccccc3)cc2)nc1 [DDD73482]
ED50 (μM) T. brucei ([1]; T. brucei cell growth): >1 µM
IC50 [2, 4]: 60 µM

CCCNCc1cccc(-c2ccc([S+](=O)([O-])Nc3c(CC(C)C)nn(C)c3C)cc2)c1 [DDD100800]
ED50 (μM) T. brucei [1, 5]: 0.052 µM
IC50 [2, 6]: 0.006 µM

Cc1nn(C)c(C)c1N[S+](=O)([O-])c1cc([S+](=O)([O-])c2ccccc2)cs1 [DDD73237]
ED50 (μM) T. brucei ([1]; T. brucei cell growth): >1 µM
IC50 [2, 4]: 10.4 µM

Cc1nn(C)c(C)c1N[S+](=O)([O-])c1ccc(-c2cccc(CN)c2)cc1 [DDD88560]
ED50 (μM) T. brucei ([1]; T. brucei cell growth): 2.15 µM
IC50 [2, 3]: 0.054 µM

Cc1c(N[S+](=O)([O-])c2ccc(-c3cccc(CC4CCNCC4)c3)cc2)c(CC(C)C)nn1C [DDD100094]
ED50 (μM) T. brucei [1, 5]: 0.008 µM
IC50 [2, 6]: 0.003 µM

Cc1nn(C)c(C)c1N[S+](=O)([O-])c1ccc(CNC(=O)c2ccccc2)s1 [DDD73238]
ED50 (μM) T. brucei ([1]; T. brucei cell growth): 6.9 µM
IC50 [2, 4]: 0.63 µM

Cc1nn(C)c(C)c1N[S+](=O)([O-])c1ccc(NCc2cccc(N(C)C)c2)nc1 [DDD73320]
ED50 (μM) T. brucei ([1]; T. brucei cell growth): 16.3 µM
IC50 [2, 4]: 2.6 µM

Cc1ccnc(C)c1N[S+](=O)([O-])c1c(Cl)cc(-c2ccnc(N3CCNCC3)c2)cc1Cl [DDD88319]
ED50 (μM) T. brucei ([1]; T. brucei cell growth): 0.69 µM
IC50 [2, 3]: 0.045 µM

COc1ccc(OC)c([S+](=O)([O-])Nc2c(C)nn(C)c2C)c1 [DDD64750]
ED50 (μM) T. brucei ([1]; T. brucei cell growth): >1 µM
IC50 [2, 4]: 30 µM

Cc1nn(C)c(C)c1NS(=O)(=O)c1c(Cl)cc(-c2ccnc(NCCNc3ccccn3)c2)cc1Cl [DDD86302, 2,6-Dichloro-4-{2-[2-(pyridin-2-ylamino)-ethylamino]pyridin-4-yl}-N-(1,3,5-trimethyl-1 H-pyrazol-4-yl)-benzenesulfonamide]
ED50 (μM) T. brucei ([1]; T. brucei cell growth): >1 µM
IC50 [2, 3]: 1 µM

Cc1nn(C)c(C)c1N[S+](=O)([O-])c1ccc(NCC(c2ccccc2)c2ccccc2)nc1 [DDD73492]
ED50 (μM) T. brucei ([1]; T. brucei cell growth): >1 µM
IC50 [2, 4]: 13.6 µM

Cc1c(N[S+](=O)([O-])c2c(Cl)cc(CCCN3CCN(C)CC3)cc2Cl)c(CC(C)C)nn1C [DDD90060]
ED50 (μM) T. brucei ([1]; T. brucei cell growth): 0.02 µM
IC50 [2, 3]: 0.006 µM

COc1ccc(OCCC[S+](=O)([O-])Nc2c(C)nn(C)c2C)cc1 [DDD71275]
ED50 (μM) T. brucei ([1]; T. brucei cell growth): >1 µM
IC50 [2, 4]: 62 µM

Cc1nn(C)c(C)c1N[S+](=O)([O-])c1cccc2c(N(C)C)cccc12 [DDD73240]
ED50 (μM) T. brucei ([1]; T. brucei cell growth): >1 µM
IC50 [2, 4]: 1.6 µM
